Tests used:
Met = Met (Homo sapiens (Human), UniProt P08581); assay: Enzyme selectivity test (ELISA), Met; format: biochemical
Experimental: (§1) 1) Enzyme reaction substrate Poly(Glu, Tyr) 4:1 was diluted to 20 μg/mL with potassium-free PBS (10 mM sodium phosphate buffer, 150 mM NaCl, pH 7.2-7.4), and the microtiter plate was coated with 125 μL/well and placed at 37° C. for 12-16 hours of reaction. The liquid in the well was discard. The plate was washed three times with T-PBS (potassium-free PBS containing 0.1% Tween-20, 200 μL/well), 5 minutes each time. The ELISA plate was dried in an oven at 37° C. for 1 to 2 hours.
(§2) 2) Reaction buffer (50 mM HEPES pH 7.4, 50 mM MgCl2, 0.5 mM MnCl2, 0.2 mM Na3VO4, 1 mM DTT) diluted ATP solution (49 μL) was added to each well, 1 μL of the compound to be tested was added to each well, and then 50 μL of DDR2 kinase domain recombinant protein diluted in the reaction buffer was added to start the reaction. Two control wells without ATP were set in each experiment. The plate placed on a shaker (100 rpm) at 37° C. for 1 hour of reaction. The liquid in the well was discarded and the plate was washed three times with T-PBS.
(§3) 3) Antibody PY99 dilution solution (the antibody was diluted 1:500 with T-PBS containing BSA 5 mg/mL) was added at 100 μL/well, and shaken on a shaker at 37° C. for 0.5 hour of reaction. The liquid in the well was discarded and the plate was washed three times with T-PBS.
(§4) 4) Horseradish peroxidase labeled goat anti-murine secondary antibody dilution solution (the antibody is diluted 1:2000 with T-PBS containing BSA 5 mg/ml) was added at 100 μL/well, and shaken on a shaker at 37° C. for 0.5 hour of reaction. The liquid in the well was discarded and the plate was washed three times with T-PBS.
(§5) 5) 2 mg/ml of OPD color developing solution [diluted with 0.1 M citric acid-sodium citrate buffer (pH=5.4) containing 0.03% H2O2] was added at 100 μL/well and reacted for 1 to 10 minutes at 25° C. in the dark.
(§6) 6) 2M H2SO4 was added at 50 μL/well to stop the reaction, and a tunable wavelength microplate reader VERSAmax was used for reading at a wavelength of 490 nm.
(§7) The IC50 value was obtained by four-parameter regression using the software that came with the microplate reader. […]

IGF-1R = IGF-1R (Homo sapiens (Human), UniProt P08069); assay: Enzyme selectivity test (ELISA), IGF-1R; format: biochemical
Sequence of IGF-1R (P08069 31-1367, species assumed): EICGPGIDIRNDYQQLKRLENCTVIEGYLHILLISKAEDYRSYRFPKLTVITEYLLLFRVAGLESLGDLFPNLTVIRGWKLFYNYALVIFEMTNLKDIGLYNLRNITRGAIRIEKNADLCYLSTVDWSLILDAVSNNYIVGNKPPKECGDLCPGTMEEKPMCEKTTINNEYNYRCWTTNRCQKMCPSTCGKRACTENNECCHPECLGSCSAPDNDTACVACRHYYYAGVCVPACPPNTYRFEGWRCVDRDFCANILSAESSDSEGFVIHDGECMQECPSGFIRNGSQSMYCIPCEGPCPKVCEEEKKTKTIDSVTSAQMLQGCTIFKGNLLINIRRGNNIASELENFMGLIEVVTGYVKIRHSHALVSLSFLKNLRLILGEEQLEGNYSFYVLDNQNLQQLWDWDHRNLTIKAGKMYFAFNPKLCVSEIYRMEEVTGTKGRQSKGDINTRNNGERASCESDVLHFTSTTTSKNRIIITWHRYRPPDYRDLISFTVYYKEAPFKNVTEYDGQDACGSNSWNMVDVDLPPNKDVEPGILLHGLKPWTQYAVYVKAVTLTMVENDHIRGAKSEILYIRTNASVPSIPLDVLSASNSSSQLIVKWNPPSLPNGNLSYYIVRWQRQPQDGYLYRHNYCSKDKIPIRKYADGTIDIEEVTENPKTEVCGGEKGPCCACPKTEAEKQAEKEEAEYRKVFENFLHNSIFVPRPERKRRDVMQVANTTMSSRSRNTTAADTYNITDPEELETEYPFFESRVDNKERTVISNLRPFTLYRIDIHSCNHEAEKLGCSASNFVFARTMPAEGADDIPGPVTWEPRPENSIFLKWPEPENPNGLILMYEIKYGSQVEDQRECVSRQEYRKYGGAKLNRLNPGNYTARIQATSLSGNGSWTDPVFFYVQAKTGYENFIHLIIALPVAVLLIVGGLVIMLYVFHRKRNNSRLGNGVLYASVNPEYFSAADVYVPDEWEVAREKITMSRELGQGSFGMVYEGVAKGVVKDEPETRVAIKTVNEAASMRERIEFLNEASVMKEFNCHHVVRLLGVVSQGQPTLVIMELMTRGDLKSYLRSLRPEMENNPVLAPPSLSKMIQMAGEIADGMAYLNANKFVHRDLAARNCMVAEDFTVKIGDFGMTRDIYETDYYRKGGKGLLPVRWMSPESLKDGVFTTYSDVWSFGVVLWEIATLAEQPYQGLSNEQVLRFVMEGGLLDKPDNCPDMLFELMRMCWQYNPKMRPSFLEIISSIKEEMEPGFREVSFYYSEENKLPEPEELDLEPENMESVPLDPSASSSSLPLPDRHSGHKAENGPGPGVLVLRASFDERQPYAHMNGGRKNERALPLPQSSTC
Experimental: as §1, §2, §3, §4, §5, §6, §7

[1] = system: pulmonary fibrosis induced by bleomycin in mice; assay: MASSON staining and α-SMA immunohistochemical staining of lung sections; format: in vivo, mouse; settings: Effect example 5, 30, 60, 90 mg/kg oral qd 12 days
Experimental: The grouping of mice is the same as that in Effect example 2.
1) Dewaxing to water of the paraffin sections: the sections were put into xylene I (20 minutes)-xylene II (29 minutes)-absolute ethanol I (5 minutes)-absolute ethanol II (5 minutes)-75% ethanol (5 minutes), and then washed with tap water.
2) Potassium dichromate staining: the sections were soaked in potassium dichromate overnight and washed with tap water.
3) Iron hematoxylin staining: iron hematoxylin solution A and B were mixed in an equal ratio to form an iron hematoxylin staining solution, then the sections were put into iron hematoxylin for about 3 minutes, washed with tap water, differentiated with a solution of hydrochloric acid in ethanol, and then rinsed with tap water.
4) Ponceau red acid fuchsin staining: the sections were put into a Ponceau red acid fuchsin solution for 5 to 10 minutes and rinsed with tap water.
5) Phosphomolybdic acid staining: the sections were put into an aqueous phosphomolybdic acid solution for 1 to 3 minutes.
6) Aniline blue staining: after the phosphomolybdic acid staining, the sections were not washed with water, but directly put into an aniline blue staining solution for staining for 3 to 6 minutes.
7) Differentiation: the sections were differentiated with 1% glacial acetic acid, and dehydrated with two cylinders of absolute ethanol. […]

Abl = Abl (Homo sapiens (Human), UniProt P00519); assay: Enzyme selectivity test (ELISA), Abl; format: biochemical
Sequence of Abl (P00519 whole entry, species assumed): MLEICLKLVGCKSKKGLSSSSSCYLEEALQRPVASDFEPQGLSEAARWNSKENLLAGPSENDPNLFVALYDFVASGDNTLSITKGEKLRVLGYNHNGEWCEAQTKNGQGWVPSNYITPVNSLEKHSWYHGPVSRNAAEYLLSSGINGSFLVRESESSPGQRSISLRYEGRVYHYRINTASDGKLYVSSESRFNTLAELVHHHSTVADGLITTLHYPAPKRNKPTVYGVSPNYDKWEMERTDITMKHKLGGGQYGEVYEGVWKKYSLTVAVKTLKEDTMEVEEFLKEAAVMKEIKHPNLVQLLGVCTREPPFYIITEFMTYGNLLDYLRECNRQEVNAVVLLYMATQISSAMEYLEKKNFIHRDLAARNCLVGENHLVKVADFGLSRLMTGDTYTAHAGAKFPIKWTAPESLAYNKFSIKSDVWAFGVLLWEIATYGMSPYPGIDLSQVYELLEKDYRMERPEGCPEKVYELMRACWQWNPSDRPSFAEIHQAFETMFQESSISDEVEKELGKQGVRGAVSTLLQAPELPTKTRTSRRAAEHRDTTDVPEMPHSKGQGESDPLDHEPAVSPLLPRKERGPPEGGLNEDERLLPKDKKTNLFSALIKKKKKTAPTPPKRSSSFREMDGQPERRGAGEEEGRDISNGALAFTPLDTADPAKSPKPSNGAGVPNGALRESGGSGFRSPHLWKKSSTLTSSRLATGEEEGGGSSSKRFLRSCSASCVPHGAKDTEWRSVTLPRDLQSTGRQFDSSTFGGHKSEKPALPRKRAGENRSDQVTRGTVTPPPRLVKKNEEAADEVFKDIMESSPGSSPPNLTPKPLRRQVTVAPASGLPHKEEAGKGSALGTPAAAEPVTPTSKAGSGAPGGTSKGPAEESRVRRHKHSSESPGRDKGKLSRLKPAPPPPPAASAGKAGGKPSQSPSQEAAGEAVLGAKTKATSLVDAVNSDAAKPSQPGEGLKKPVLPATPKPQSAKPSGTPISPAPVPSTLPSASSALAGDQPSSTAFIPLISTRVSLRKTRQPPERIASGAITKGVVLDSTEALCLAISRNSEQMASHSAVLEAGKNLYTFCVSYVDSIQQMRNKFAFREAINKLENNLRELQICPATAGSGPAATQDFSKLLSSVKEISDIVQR
Experimental: as §1, §2, §3, §4, §5, §6, §7

EPH-A2 = EPH-A2 (Homo sapiens (Human), UniProt P29317); assay: Enzyme selectivity test (ELISA), EPH-A2; format: biochemical
Sequence of EPH-A2 (P29317 24-976, species assumed): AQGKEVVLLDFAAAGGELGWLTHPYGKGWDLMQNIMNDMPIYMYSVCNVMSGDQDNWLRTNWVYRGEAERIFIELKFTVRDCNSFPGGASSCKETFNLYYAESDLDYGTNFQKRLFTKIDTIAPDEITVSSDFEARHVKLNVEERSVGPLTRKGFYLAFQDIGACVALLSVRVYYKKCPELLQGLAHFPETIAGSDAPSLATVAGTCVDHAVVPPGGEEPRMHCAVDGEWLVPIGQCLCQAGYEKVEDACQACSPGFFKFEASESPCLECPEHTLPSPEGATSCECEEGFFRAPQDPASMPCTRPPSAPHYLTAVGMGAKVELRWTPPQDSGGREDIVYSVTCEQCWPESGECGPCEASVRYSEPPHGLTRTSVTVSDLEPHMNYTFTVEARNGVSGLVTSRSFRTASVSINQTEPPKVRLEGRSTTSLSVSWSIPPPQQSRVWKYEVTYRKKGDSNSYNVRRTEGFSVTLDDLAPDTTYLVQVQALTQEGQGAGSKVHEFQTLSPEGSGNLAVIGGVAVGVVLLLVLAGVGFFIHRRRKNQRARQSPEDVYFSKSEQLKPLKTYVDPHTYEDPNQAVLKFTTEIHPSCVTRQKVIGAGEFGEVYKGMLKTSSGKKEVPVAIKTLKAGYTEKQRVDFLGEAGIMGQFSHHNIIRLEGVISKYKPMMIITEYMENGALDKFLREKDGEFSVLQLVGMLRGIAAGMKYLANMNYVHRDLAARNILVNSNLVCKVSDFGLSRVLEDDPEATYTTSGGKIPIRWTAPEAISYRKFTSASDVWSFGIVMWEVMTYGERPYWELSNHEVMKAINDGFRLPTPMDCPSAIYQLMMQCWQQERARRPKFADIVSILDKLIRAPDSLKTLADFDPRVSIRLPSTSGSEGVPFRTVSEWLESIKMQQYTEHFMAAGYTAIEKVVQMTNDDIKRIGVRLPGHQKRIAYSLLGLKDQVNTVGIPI
Experimental: as §1, §2, §3, §4, §5, §6, §7

Sequence of Met (P08581 25-1390): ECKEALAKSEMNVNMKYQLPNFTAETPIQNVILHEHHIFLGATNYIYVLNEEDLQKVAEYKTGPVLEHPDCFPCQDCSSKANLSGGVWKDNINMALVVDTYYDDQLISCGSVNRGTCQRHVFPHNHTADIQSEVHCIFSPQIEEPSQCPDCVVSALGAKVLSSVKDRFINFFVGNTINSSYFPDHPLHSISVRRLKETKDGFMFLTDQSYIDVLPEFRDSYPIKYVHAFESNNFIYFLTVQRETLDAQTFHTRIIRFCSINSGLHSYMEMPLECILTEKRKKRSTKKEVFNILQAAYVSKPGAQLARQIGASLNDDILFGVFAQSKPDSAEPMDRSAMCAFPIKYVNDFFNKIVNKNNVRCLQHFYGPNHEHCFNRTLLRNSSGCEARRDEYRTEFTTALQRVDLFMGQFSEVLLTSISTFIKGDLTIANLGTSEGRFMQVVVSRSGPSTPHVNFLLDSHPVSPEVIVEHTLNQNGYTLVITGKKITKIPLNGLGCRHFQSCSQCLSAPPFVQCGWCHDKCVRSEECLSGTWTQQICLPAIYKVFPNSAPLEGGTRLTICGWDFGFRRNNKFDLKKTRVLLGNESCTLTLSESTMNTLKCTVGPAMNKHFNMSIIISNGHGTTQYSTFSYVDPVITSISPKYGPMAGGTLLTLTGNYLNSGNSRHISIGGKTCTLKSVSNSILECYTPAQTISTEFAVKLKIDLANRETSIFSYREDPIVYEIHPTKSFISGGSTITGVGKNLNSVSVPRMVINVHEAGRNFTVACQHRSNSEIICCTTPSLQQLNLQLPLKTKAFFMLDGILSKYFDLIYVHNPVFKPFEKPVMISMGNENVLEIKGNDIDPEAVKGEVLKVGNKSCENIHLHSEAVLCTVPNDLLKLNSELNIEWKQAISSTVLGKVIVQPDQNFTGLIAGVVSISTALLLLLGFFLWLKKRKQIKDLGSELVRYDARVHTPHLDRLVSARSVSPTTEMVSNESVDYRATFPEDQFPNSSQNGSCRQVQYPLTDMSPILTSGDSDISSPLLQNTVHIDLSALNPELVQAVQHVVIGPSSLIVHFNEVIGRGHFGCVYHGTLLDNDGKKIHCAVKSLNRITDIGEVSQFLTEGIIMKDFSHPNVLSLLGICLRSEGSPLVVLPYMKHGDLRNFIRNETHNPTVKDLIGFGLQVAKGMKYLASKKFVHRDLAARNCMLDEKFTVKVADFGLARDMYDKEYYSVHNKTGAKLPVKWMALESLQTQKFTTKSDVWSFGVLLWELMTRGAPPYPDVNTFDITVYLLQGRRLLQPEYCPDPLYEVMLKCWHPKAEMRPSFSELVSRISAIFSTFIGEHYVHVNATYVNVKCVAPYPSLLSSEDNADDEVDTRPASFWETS

SMILES: O=C(Nc1cccc(C(F)(F)F)c1)c1ccc(C2CC2)c(-c2ccc3nc(Nc4cnn(C5CC5)c4)ncc3c2)c1 [Compound S15, 4-cyclopropyl-3-(2-((1-cyclopropyl-1H-pyrazol-4-yl)amino)quinazolin-6-yl)-N-(3-(trifluoromethyl)phenyl)benzamide]
- IC50 (Met): > 1000 nM
- IC50 (IGF-1R): > 1000 nM
- expression of collagen and α-SMA (staining, immunohistochemistry) [1]: decrease the expression of collagen and α-SMA in a dose-dependent manner
- pulmonary fibrosis, MASSON staining [1]: significantly reduce BLM-induced lung injury and inflammation, and can also reduce pulmonary fibrosis
- IC50 (Abl): < 10 nM
- IC50 (EPH-A2): > 10 nM

From US11655239B2 (SHANGHAI INSTITUTE OF MATERIAL MEDICA, CHINESE ACADEMY OF …, priority 2019, dated 2023)
